Each structure is given as a SMILES string.

In one assay the test system is Vitamin D3-Induced Vascular Calcification Rat Model. The experiment in a line: Ectopic calcification inhibitory effect in vitamin D3-induced vascular calcification rat model (amount of aortic phosphorus). Conditions: 336 h, dose 3 mg/kg, oral, once a day for 2 weeks, aortic phosphorus relative to control (vehicle), read-out: Rate of inhibition (%) of ectopic calcification. Format: in vivo, Male Wistar/ST rats. The source says: Test Example: Ectopic Calcification Inhibitory Effect in Vitamin D3-Induced Vascular Calcification Rat Model
Male Wistar/ST rats were grouped according to their body weights as an index (6 individuals per group). Cholecalciferol (Wako Pure Chemical Industries, Ltd.) was subcutaneously administered at repeated doses of 125,000 IU/kg to each rat for 3 days to induce vascular calcification. Each test substance was orally administered at repeated doses once a day for 2 weeks from the day of administration of cholecalciferol. The rats were fasted from approximately 6 hours before the administration of the test substance to approximately 2 hours thereafter. On the day following the final administration, total blood was collected from the descending aorta of each rat under isoflurane anesthesia, and then, the aorta from the aortic root to the posterior limb bifurcation was excised. The aorta was chopped, then homogenized after adding 5 mL of 1 N hydrochloric acid and left at room temperature for 1 hour. After centrifugation at 15,000 rpm at 4° C. for 15 minutes, the obtained supernatant was used as a measurement sample. The amount of phosphorus in the measurement sample was measured using Phospha C-Test Wako (Wako Pure Chemical Industries, Ltd.) and used as an index for calcification. An average value of the amounts of aortic phosphorus in each group was determined to calculate the rate of inhibition of calcification by the administration of the test substance relative to a control (vehicle administration) (Table 7).
Turning to `O=P(O)(O)C(O)(CC1CC2CCC1C2)P(=O)(O)O` (stereo not drawn) [Example 31, Disodium [2-(bicyclo[2.2.1]heptan-2-yl)-1-hydroxyethane-1,1-diyl]bisphosphonate], the inhibition in vivo at 3 mg/kg is 29%.
On the same count and under the same terms, under `CC(C1CCCC1)C(O)(P(=O)(O)O)P(=O)(O)O` (stereo not drawn) [Example 8, Disodium (2-cyclopentyl-1-hydroxypropane-1,1-diyl)bisphosphonate] stands 22%.

The assay is the same for the next values; noted with them: 336 h, dose 5 mg/kg, oral, once a day for 2 weeks, aortic phosphorus relative to control (vehicle), read-out: Rate of inhibition (%) of ectopic calcification.
Take `O=P(O)(O)C(O)(C[C@@H]1CC[C@@H](F)C1)P(=O)(O)O` (relative stereo) [Example 18, Disodium {2-[(1R*,3R*)-3-fluorocyclopentyl]-1-hydroxyethane-1,1-diyl}bisphosphonate]: the inhibition in vivo at 5 mg/kg was 53%.
The same measure, in the same setting: for `O=P(O)(O)C(O)(CC1CCC(F)(F)C1)P(=O)(O)O` (stereo not drawn) [Example 23, Disodium [2-(3,3-difluorocyclopentyl)-1-hydroxyethane-1,1-diyl]bisphosphonate] the value was 43%; for `CC1(C)CC(CC(O)(P(=O)(O)O)P(=O)(O)O)CC1(C)C` [Example 26, Disodium [1-hydroxy-2-(3,3,4,4-tetramethylcyclopentyl)ethane-1,1-diyl]bisphosphonate], 66%; for `CC1(CC(O)(P(=O)(O)O)P(=O)(O)O)CCCC1` [Example 11, Disodium [1-hydroxy-2-(1-methylcyclopentyl)ethane-1,1-diyl]bisphosphonate], 57%.
The same measure, in the same setting: under `CC1(CC(O)(P(=O)(O)O)P(=O)(O)O)CCCCC1` [Example 30, Disodium [1-hydroxy-2-(1-methylcyclohexyl)ethane-1,1-diyl]bisphosphonate] stands 47%; under `O=P(O)(O)C(O)(C[C@@H]1CC[C@@H](Oc2ccccc2)C1)P(=O)(O)O` (relative stereo) [Example 20, Disodium {1-hydroxy-2-[(1R*,3R*)-3-phenoxycyclopentyl]ethane-1,1-diyl}bisphosphonate], 46%; under `C[C@@H]1C[C@H](CC(O)(P(=O)(O)O)P(=O)(O)O)C[C@@H]1C` [Example 24, Disodium {2-[(1r,3R,4S)-3,4-dimethylcyclopentyl]-1-hydroxyethane-1,1-diyl}bisphosphonate], 93%.
On the same count and under the same terms, under `CC1CCCC1CC(O)(P(=O)(O)O)P(=O)(O)O` (stereo not drawn) [Example 14, Disodium [1-hydroxy-2-(2-methylcyclopentyl)ethane-1,1-diyl]bisphosphonate] stands 29%.
As to `C[C@@H]1C[C@@H](CC(O)(P(=O)(O)O)P(=O)(O)O)C[C@@H]1C` [Example 25, Disodium {2-[(1s,3R,4S)-3,4-dimethylcyclopentyl]-1-hydroxyethane-1,1-diyl}bisphosphonate], the inhibition in vivo at 5 mg/kg came out at 64%.
On the same count and under the same terms, for `O=P(O)(O)C(O)(CC1CCCCC1)P(=O)(O)O` [Example 27, Disodium (2-cyclohexyl-1-hydroxyethane-1,1-diyl)bisphosphonate] the value was 82%; for `CCC1(CC(O)(P(=O)(O)O)P(=O)(O)O)CCCC1` [Example 12, Disodium [2-(1-ethylcyclopentyl)-1-hydroxyethane-1,1-diyl]bisphosphonate], 28%; for `CC1(CC(O)(P(=O)(O)O)P(=O)(O)O)CCC1` [Example 4, Disodium [1-hydroxy-2-(1-methylcyclobutyl)ethane-1,1-diyl]bisphosphonate], 39%.
Same read-out and setting: for `C[C@H]1CC[C@@H](CC(O)(P(=O)(O)O)P(=O)(O)O)C1` (relative stereo) [Example 16, Disodium {1-hydroxy-2-[(1R*,3S*)-3-methylcyclopentyl]ethane-1,1-diyl}bisphosphonate] the value was 75%.
Still for that read-out and setting: for `CC1(C)CC(CC(O)(P(=O)(O)O)P(=O)(O)O)CC(C)(C)C1` [Example 35, Disodium [1-hydroxy-2-(3,3,5,5-tetramethylcyclohexyl)ethane-1,1-diyl]bisphosphonate] the value was 71%; for `CCCC1(CC(O)(P(=O)(O)O)P(=O)(O)O)CCCC1` [Example 13, Disodium [1-hydroxy-2-(1-propylcyclopentyl)ethane-1,1-diyl]bisphosphonate], 53%.
For the compound `CC1CCC(CC(O)(P(=O)(O)O)P(=O)(O)O)C1` (stereo not drawn) [Example 15, Disodium [1-hydroxy-2-(3-methylcyclopentyl)ethane-1,1-diyl]bisphosphonate], the inhibition in vivo at 5 mg/kg turned out to be 87%.
Still for that read-out and setting: under `O=P(O)(O)C(O)(C=C1CCCC1)P(=O)(O)O` [Example 7, Disodium (2-cyclopentylidene-1-hydroxyethane-1,1-diyl)bisphosphonate] stands 51%.
The same measure, in the same setting: under `C[C@H]1CC[C@H](CC(O)(P(=O)(O)O)P(=O)(O)O)C1` (relative stereo) [Example 17, Disodium {1-hydroxy-2-[(1R*,3R*)-3-methylcyclopentyl]ethane-1,1-diyl}bisphosphonate] stands 80%.
On the same count and under the same terms, under `CC1(C)CCC(CC(O)(P(=O)(O)O)P(=O)(O)O)C1` (stereo not drawn) [Example 21, Disodium [2-(3,3-dimethylcyclopentyl)-1-hydroxyethane-1,1-diyl]bisphosphonate] stands 68%.

Staying with this assay, now noted: 336 h, dose 10 mg/kg, oral, once a day for 2 weeks, aortic phosphorus relative to control (vehicle), read-out: Rate of inhibition (%) of ectopic calcification.
Turning to `O=P(O)(O)C(O)(CC1CCCCCC1)P(=O)(O)O` [Example 44, Disodium (2-cycloheptyl-1-hydroxyethane-1,1-diyl)bisphosphonate], the inhibition in vivo at 10 mg/kg turned out to be 95%.
For `CC(C1CCC1)C(O)(P(=O)(O)O)P(=O)(O)O` (stereo not drawn) [Example 3, Disodium (2-cyclobutyl-1-hydroxypropane-1,1-diyl)bisphosphonate], the inhibition in vivo at 10 mg/kg was found to be 64%.

Staying with this assay, now noted: 336 h, dose 30 mg/kg, oral, once a day for 2 weeks, aortic phosphorus relative to control (vehicle), read-out: Rate of inhibition (%) of ectopic calcification.
Consider `O=P(O)(O)C(O)(CC1CCCC1)P(=O)(O)O` [Example 6, Disodium (2-cyclopentyl-1-hydroxyethane-1,1-diyl)bisphosphonate], for which the inhibition in vivo at 30 mg/kg is 95%.
Still for that read-out and setting: for `CC(C1CCCCC1)C(O)(P(=O)(O)O)P(=O)(O)O` (stereo not drawn) [Example 28, Disodium (2-cyclohexyl-1-hydroxypropane-1,1-diyl)bisphosphonate] the value was 95%.

The subject of the next assay is calcification in the aorta.
Test: not given
Conditions: dialysis patients; cited from earlier work.
On to `CC(O)(P(=O)(O)O)P(=O)(O)O` [etidronate, Etidronate], for which the “inhibition of calcification in the aorta” value is reported as “significantly inhibit calcification in the aorta”.

The test system of a further assay is carotid artery intima-media thicknesses.
Test: not given
Particulars: type 2 diabetic patients; cited from earlier work.
In the case of `CC(O)(P(=O)(O)O)P(=O)(O)O` [etidronate, Etidronate], the “carotid artery intima-media thickness” value is listed as “significantly decrease the carotid artery intima-media thicknesses”.

These data come from patent publication US10689408B2, “Bisphosphonic acid compound” (FUJIYAKUHIN CO., LTD., priority 2016, dated 2020).
